From patent US20250026708A1, “PROCESS FOR PREPARATION OF TRIHEPTANOIN” (Navinta, LLC, priority 2023, published 2025)

Assay: Stability study of triheptanoin on storage (acid value, diester impurities, purity by GC and/or HPLC)
Assay type: physicochemical
Experimental: The stability data of the present invention at different stability condition(s) from initial to up to 6 (six) months is described below in Table-I: As shown in Table-I, two batches (Example 16 & Example 17) of triheptanoin prepared by the present method with acid values of […] about 0.2 mg KOH/gm were studied for stability. The samples were kept at 25° C./60% RH, 40° C./75% RH for up to 6 months and at 50° C. for up to 3 months. During the stability study, the inventors of the present invention have focused on % of 1,2-Diester Impurity, % of 1,3-Diester Impurity and purity of triheptanoin.

[1] = 25° C./60% RH, 3 M, listed as Example 17
[2] = 25° C./60% RH, 6 M, listed as Example 17
[3] = 25° C./60% RH, 40° C./75% RH up to 6 months, 50° C. up to 3 months, acid value greater than about 0.2 mg KOH/gm
[4] = 40° C./75% RH, 1 M, listed as Example 17
[5] = 40° C./75% RH, 2 M, listed as Example 17
[6] = 40° C./75% RH, 3 M, listed as Example 17
[7] = 40° C./75% RH, 6 M, listed as Example 17
[8] = 50° C., 1 M, listed as Example 17
[9] = 50° C., 2 M, listed as Example 17
[10] = 50° C., 3 M, listed as Example 17

1,2 Diester Impurity (NMT 0.05%) (25° C./60% RH, 1 M): 0.004%
1,3 Diester Impurity (NMT 0.05%) (25° C./60% RH, 1 M): 0.002%
Acid value (25° C./60% RH, 1 M): 0.24 mg KOH/gm
Triheptanoin purity (25° C./60% RH, 1 M): 99.83%
Triheptanoin purity (25° C./60% RH, 1 M, listed as Example 17): 99.82%
1,2 Diester Impurity (NMT 0.05%) (25° C./60% RH, 3 M): 0.007%
1,3 Diester Impurity (NMT 0.05%) (25° C./60% RH, 3 M): 0.002%
Acid value (25° C./60% RH, 3 M): 0.23 mg KOH/gm
Triheptanoin purity (25° C./60% RH, 3 M): 99.82%
1,2 Diester Impurity (NMT 0.05%) [1]: 0.004%
1,3 Diester Impurity (NMT 0.05%) [1]: 0.003%
Acid value [1]: 0.22 mg KOH/gm
Triheptanoin purity [1]: 99.84%
1,2 Diester Impurity (NMT 0.05%) (25° C./60% RH, 6 M): 0.005%
1,3 Diester Impurity (NMT 0.05%) (25° C./60% RH, 6 M): 0.009%
Acid value (25° C./60% RH, 6 M): 0.27 mg KOH/gm
Triheptanoin purity (25° C./60% RH, 6 M): 99.81%
1,2 Diester Impurity (NMT 0.05%) [2]: 0.003%
1,3 Diester Impurity (NMT 0.05%) [2]: 0.004%
Triheptanoin purity [2]: 99.82%
1,2-Diester and 1,3-Diester impurities during the storage [3]: not increasing
assay potency of triheptanoin during the storage [3]: maintained
purity of triheptanoin during storage as measured by GC and/or HPLC [3]: greater than 99.7%
1,2 Diester Impurity (NMT 0.05%) (40° C./75% RH, 1 M): 0.005%
1,3 Diester Impurity (NMT 0.05%) (40° C./75% RH, 1 M): 0.003%
Acid value (40° C./75% RH, 1 M): 0.24 mg KOH/gm
Triheptanoin purity (40° C./75% RH, 1 M): 99.83%
1,2 Diester Impurity (NMT 0.05%) [4]: 0.004%
1,3 Diester Impurity (NMT 0.05%) [4]: 0.004%
Triheptanoin purity [4]: 99.82%
1,2 Diester Impurity (NMT 0.05%) (40° C./75% RH, 2 M): 0.008%
1,3 Diester Impurity (NMT 0.05%) (40° C./75% RH, 2 M): 0.005%
Acid value (40° C./75% RH, 2 M): 0.24 mg KOH/gm
Triheptanoin purity (40° C./75% RH, 2 M): 99.78%
1,2 Diester Impurity (NMT 0.05%) [5]: 0.006%
1,3 Diester Impurity (NMT 0.05%) [5]: 0.003%
Acid value [5]: 0.25 mg KOH/gm
Triheptanoin purity [5]: 99.81%
1,2 Diester Impurity (NMT 0.05%) (40° C./75% RH, 3 M): 0.013%
1,3 Diester Impurity (NMT 0.05%) (40° C./75% RH, 3 M): 0.007%
Acid value (40° C./75% RH, 3 M): 0.24 mg KOH/gm
Triheptanoin purity (40° C./75% RH, 3 M): 99.82%
1,2 Diester Impurity (NMT 0.05%) [6]: 0.006%
1,3 Diester Impurity (NMT 0.05%) [6]: 0.005%
Acid value [6]: 0.23 mg KOH/gm
1,2 Diester Impurity (NMT 0.05%) (40° C./75% RH, 6 M): 0.018%
1,3 Diester Impurity (NMT 0.05%) (40° C./75% RH, 6 M): 0.015%
Acid value (40° C./75% RH, 6 M): 0.26 mg KOH/gm
Triheptanoin purity (40° C./75% RH, 6 M): 99.74%
1,2 Diester Impurity (NMT 0.05%) [7]: 0.011%
1,3 Diester Impurity (NMT 0.05%) [7]: 0.014%
Acid value [7]: 0.29 mg KOH/gm
Triheptanoin purity [7]: 99.81%
1,2 Diester Impurity (NMT 0.05%) (50° C., 1 M): 0.008%
1,3 Diester Impurity (NMT 0.05%) (50° C., 1 M): 0.005%
Acid value (50° C., 1 M): 0.24 mg KOH/gm
Triheptanoin purity (50° C., 1 M): 99.83%
1,2 Diester Impurity (NMT 0.05%) [8]: 0.005%
1,3 Diester Impurity (NMT 0.05%) [8]: 0.004%
Triheptanoin purity [8]: 99.81%
1,2 Diester Impurity (NMT 0.05%) (50° C., 2 M): 0.014%
1,3 Diester Impurity (NMT 0.05%) (50° C., 2 M): 0.010%
Acid value (50° C., 2 M): 0.24 mg KOH/gm
Triheptanoin purity (50° C., 2 M): 99.76%
1,2 Diester Impurity (NMT 0.05%) [9]: 0.008%
1,3 Diester Impurity (NMT 0.05%) [9]: 0.007%
Acid value [9]: 0.25 mg KOH/gm
Triheptanoin purity [9]: 99.78%
1,2 Diester Impurity (NMT 0.05%) (50° C., 3 M): 0.014%
1,3 Diester Impurity (NMT 0.05%) (50° C., 3 M): 0.012%
Acid value (50° C., 3 M): 0.25 mg KOH/gm
Triheptanoin purity (50° C., 3 M): 99.80%
1,2 Diester Impurity (NMT 0.05%) [10]: 0.010%
1,3 Diester Impurity (NMT 0.05%) [10]: 0.010%
Acid value [10]: 0.24 mg KOH/gm
Triheptanoin purity [10]: 99.83%
1,2 Diester Impurity (NMT 0.05%) (Initial): 0.004%
1,3 Diester Impurity (NMT 0.05%) (Initial): 0.002%
Acid value (Initial): 0.21 mg KOH/gm
Triheptanoin purity (Initial): 99.76%
1,2 Diester Impurity (NMT 0.05%) (Initial, listed as Example 17): 0.003%
Triheptanoin purity (Initial, listed as Example 17): 99.77%
Structure (SMILES): CCCCCCC(=O)OCC(COC(=O)CCCCCC)OC(=O)CCCCCC [Example 16, heptanoic acid, 1,1′,1″-(1,2,3 propanetriyl) ester]
